Experiments:
[1] = system: SOC; assay: Fura2-AM calcium imaging in HEK293 cells; type: cell-based; details: for effect on intracellular calcium levels, post SOC activation treatment: applied after ER store depletion, at minute 510 of imaging
Protocol: Calcium imaging was utilized for further characterization of the compounds and analogs. Using Fura2-AM, a known ratiometric calcium indicator, SOC dependent intracellular calcium rise and lack thereof was measured after treatment of our compounds (FIG. 3A-B). […] 1 minute before treatment of Thapsigargin.
This observation was in line with the previous luciferase assays and confirmed the ability of these compounds to inhibit SOC.
LaCl, a general blocker of divalent channels, was also used as a comparison for the post treatment experiment. […] HEK293 cells were treated with DMSO (black), LaCl at 1 uM (red), AnCoA4 at 50 uM (orange), and BiochaninA at 50 uM (green) at minute 510 of the calcium imaging. The intracellular calcium levels quickly drop after LaCl treatment whereas the compound treatment had no effect on the calcium levels.imaging.

[2] = molecular target: SOC; assay: NFAT coupled luciferase assay (NFAT-luc) for functional inhibition of SOC; type: cell-based; details: Jurkat T cells pretreated 30 minutes, activated by thapsigargin (TG) and PMA; read-out: EC50, NFAT-luc assay dose response
Protocol: To evaluate the ability of these compounds to inhibit SOC, a NFAT coupled luciferase assay was utilized as a functional secondary screen (FIG. 2A). This assay allows the monitoring of the IL2 promoter dependent production of luciferase that is directly activated by SOC through dephosphorylation of NFAT in T lymphocytes. This assay requires treatment of PMA, a PKC agonist, in parallel with SOC activation. Jurkat T cells were pretreated with each of the 51 compounds for 30 minutes and then activated by treatment of thapsigargin (TG) and PMA. TG depletes the ER stores by inhibiting the SERCA pumps that are responsible for refilling these stores with calcium. This process in turn activates SOC currents.
Fifty one compounds identified in the binding assay were tested by NFAT-luc assay to evaluated their SOC inhibitory properties (top). Renilla-luc was also monitored as an internal control of viability of the cells (bottom).
To further examine the hits produced from the secondary luciferase screen, four compounds AnCoA4, AnCoA5, AnCoG4, and AnCoF6 were selected (FIGS. 2B, C, D). The Dose response curve calculated from FIG. 2B is shown in FIG. 2C with a calculated EC50 equal to 0.9 μM.

[3] = system: jurkat T lymphocytes; assay: qRT PCR of T and B lymphocyte activating genes in jurkat T lymphocytes; type: cell-based, human
Protocol: The ability of AnCoA4 to inhibit activation of jurkat T lymphocytes was investigated (FIG. 4A). As IL2 gene production was previously investigated indirectly using a luciferase assay, the production of 83 more genes was monitored using real time quantitative PCR (qRT PCR). […] Jurkat T cells were treated with DMSO and AnCoA4 30 minutes before activation with PHA. Total RNA was extracted after 4 hours. […] Cells were pretreated with AnCoA4 30 minutes before activation with PHA or thapsigargin plus PMA for various time length of activation.
The ability of the AnCoA4 alone for independent up regulation of IL2 gene was also tested and no effects were observed.

[4] = 50 uM pretreatment for 30 minutes, then PHA activation, qRT PCR

## COc1ccc(-c2coc3cc(O)cc(O)c3c2=O)cc1 [BiochaninA]
[1]; 50 uM
  effect on intracellular calcium levels, post SOC activation treatment: no effect

## COc1cc2c(cc1-c1coc3c4c(ccc3c1=O)OC(C)(C)C=C4)OCO2 [AnCoA4]
[2]
  EC50: 0.9 µM
[1]; 50 uM, 1 minute before thapsigargin
  SOC dependent intracellular calcium influx, pretreatment: significantly reduced
[1]; 50 uM
  effect on intracellular calcium levels, post SOC activation treatment: no effect
[3]; [4]
  CCL4 down regulation: ~180 folds
  IL2 down regulation: about 6 folds
[3]; 84 genes, 50 uM pretreatment for 30 minutes, then PHA activation
  mRNA levels for most genes in comparison with the control sample: significantly lower
[3]; compound alone, without activation
  independent up regulation of IL2 gene by compound alone: no effects

## [Cl][La]([Cl])[Cl] [LaCl, reference compound]
[1]; 1 uM
  effect on intracellular calcium levels, post SOC activation treatment: quickly drop

— patent US20140221468A1, “Compounds that Modulate Store Operated Calcium Channels” (The Board of Trustees of the Leland Stanford Junior …, priority 2010, published 2014)
